Measured values published in patent publication US12104173B2, “Method for differentiation of human pluripotent stem cell lines in suspension culture” (AGENCY FOR SCIENCE, TECHNOLOGY AND RESEARCH, priority 2018, dated 2024).

B1: BMP4: bone morphogenic protein; BMP4-based protocol uses 50 ng/ml BMP4 (protein, UniProt P12644 293-408, looked up)
Bone morphogenetic protein 4: SPKHHSQRARKKNKNCRRHSLYVDFSDVGWNDWIVAPPGYQAFYCHGDCPFPLADHLNSTNHAIVQTLVNSVNSSIPKACCVPTELSAISMLYLDEYDKVVLKNYQEMVVEGCGCR

How the values were obtained:
Format in all cases: cell-based, human
hES-3 hESC line = test: CHIR dose: hematopoietic/erythroid differentiation of agitated hPSC-MC aggregates; conditions: optimal dose of CHIR-99021, day 4
[1] = test system: hES-3-MC aggregates (agitation culture); test: DoE: hematopoietic precursor generation, 14 days in Blast growth medium (BGM); conditions: BMP4 10 to 50 ng/ml, Activin A 0-80 ng/ml, CHIR exposure 0 to 24 hours, 2 weeks in BGM
Procedure: (§1) Different doses (and/or duration of exposure) of cytokines and small-molecules with known roles in inducing mesoderm and hematopoietic differentiation were evaluated using the MODDE® software for differentiation of hES-3 MC aggregate cultures initially derived under agitation. The DoE was designed to investigate effects of BMP4 (10-50 ng/ml), Activin A (0 to 80 ng/ml), CHIR (0-15 μM at 0 to 48 hours after start of mesoderm induction). These variables generated 29 culture conditions (FIG. 2A), which were tested for their effects on percent of KDR+ cells (4 days post initiation of differentiation) and the following stage of hematopoietic precursors generation (2 weeks of culture in Blast growth medium (BGM)).
(§2) Design of experiments (DoE) using a resolution IV Fractional Factorial Design was performed using the MODDE software (Sartorius Stedim Biotech, Germany) to evaluate initial BMP4, Activin A and CHIR-99021, doses and duration of exposure for their effects on the following response factors: induction of KDR+ cells 4 days post mesoderm induction or total hematopoietic precursors generated 2 weeks post differentiation. […] Computed model with R2 scores>0.5 indicate a model of significant fit, Q2 scores>0.1 indicate a significant model while Q2>0.5 indicate a good model for estimation of future prediction precision, model validity score of <0.25 indicate statistically significant model problems and reproducibility (the variation of the replicates compared to overall variability) should be greater than 0.5.
Human pluripotent stem cell-microcarrier (HPSC-MC) aggregates (derived from 7 day continuous agitation conditions), equivalent to 5×10^5 cells, were seeded and differentiated in 24-well ultra-low attachment plates with Stemline II medium using multi-factorial conditions as detailed in FIG. 2A and FIG. 6A, as well as in Table 3. […]
Following 4 days of differentiation, single cells were derived from microcarrier aggregates by treatment with TrypLE. […] Fold-expansion was calculated as total number of cells derived after 2 weeks as compared to initial seeding of 1×10^5 cells.

[2] = test system: hES-3 microcarrier aggregates; test: BMP4-based vs CHIR-based differentiation: erythroblasts output per hPSC seeded
Text: Six conditions were then chosen for the detailed study; conditions 1, 2 and 4 were based on BMP4/Activin A protocols, while conditions 7, 16 and 18 were CHIR-mediated protocols (Table 1).

[3] = test system: hES-3-MC aggregates (agitation culture); test: DoE multifactorial mesoderm induction: % KDR+ cells by flow cytometry; conditions: BMP4 10 to 50 ng/ml, Activin A 0-80 ng/ml, CHIR exposure 0 to 24 hours, 4 days post initiation of differentiation
Procedure: as §1
Design of experiments (DoE) using a resolution IV Fractional Factorial Design was performed using the MODDE software (Sartorius Stedim Biotech, Germany) to evaluate initial BMP4, Activin A and CHIR-99021, doses and duration of exposure for their effects on the following response factors: induction of KDR+ cells 4 days post mesoderm induction or total hematopoietic precursor cells generated 2 weeks post differentiation.
as §2, with “0.5. […]” for “0.5.”

D5 O-neg hiPSC line = test: CHIR dose: hematopoietic/erythroid differentiation of agitated hPSC-MC aggregates; conditions: optimal dose of CHIR-99021, day 4
[4] = hES-3 microcarrier aggregates derived from agitation condition
[5] = hES-3 microcarrier aggregates derived from static condition

| Molecule | Mesoderm induction % KDR+ PDGFRα− (hES-3 hESC line) [%] | effect of factor on hematopoietic precursor generation (DoE) [1] | erythroblasts output per human pluripotent stem cell seeded [2, 4] | erythroblasts output per human pluripotent stem cell seeded [2, 5] | effect of factor on percent of KDR+ cells (DoE) [3] | Mesoderm induction % KDR+ PDGFRα− (D5 O-neg hiPSC line) [%] |
| --- | --- | --- | --- | --- | --- | --- |
| Cc1c[nH]c(-c2cnc(NCCNc3ccc(C#N)cn3)nc2-c2ccc(Cl)cc2Cl)n1 [CHIR-99021, 6-[[2-[[4-(2,4-Dichlorophenyl)-5-(5-methyl-1H-imidazol-2-yl)-2-pyrimidinyl]amino]ethyl]amino]-3-pyridinecarbonitrile] | 14.6 | significant increase | 8.0±2.1 | 11.5±2.6 | significant increase | 35.8 |
| B1 | – | did not significantly alter | 1.2±0.7 | 7.7±1.9 | did not significantly alter | – |
